Data from US9771369B2, “Compounds and methods for kinase modulation, and indications therefor” (Plexxikon Inc., priority 2014, dated 2017).

How the values were obtained:
c-kit mutant D816V = c-kit mutant D816V (Homo sapiens (Human), UniProt P10721, D816V/DEL694-753); assay: c-Kit mutant D816V biochemical assay (AlphaScreen kinase activity)
Method in brief: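 Recombinant His-tagged c-Kit D816V kinase domain (residues 551-934, insert 694-753 deleted, E. coli-expressed) phosphorylating 30 nM biotin-(E4Y)10 with 10 μM ATP, HEPES pH 7.2, Mg/Mn, 5% DMSO; 30 min, room temperature. Phosphorylation detected by AlphaScreen (streptavidin donor/PY30 acceptor beads); IC50 from 8-point 1:3 series.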

[1] = system: BaF3-FL KIT D816V or BaF3-FL KIT V560G/D816V cell line; assay: Cell-based assays of c-Kit mutant kinase activity (cell proliferation, ATPlite); conditions: at least one of the c-kit cell assays of Example 7
Method in brief: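 BaF3 cells dependent on transfected full-length human KIT D816V or V560G/D816V (pCI-Neo, CMV promoter) were seeded at 1×10^4 cells/well and exposed to 8-point 1:3 dilutions from 10 μM top (0.2% DMSO) for three days at 37° C. ATPlite luminescence gave cell number; IC50 from concentration-response.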

Sequence of c-kit mutant D816V (P10721 other isoform, or with tags, fused parts or gaps D816V/del 694-753): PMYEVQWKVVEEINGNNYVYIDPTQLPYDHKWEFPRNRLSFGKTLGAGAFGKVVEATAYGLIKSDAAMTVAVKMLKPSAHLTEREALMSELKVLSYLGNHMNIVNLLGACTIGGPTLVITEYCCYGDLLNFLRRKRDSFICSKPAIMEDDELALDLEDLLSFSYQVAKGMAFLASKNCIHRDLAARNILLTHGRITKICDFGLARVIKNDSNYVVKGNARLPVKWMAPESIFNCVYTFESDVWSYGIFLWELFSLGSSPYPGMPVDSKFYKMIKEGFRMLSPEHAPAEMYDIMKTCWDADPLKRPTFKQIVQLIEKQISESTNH

Compound	IC50 (c-kit mutant D816V)	IC50 [1]
COc1ccc(-c2cc3c(N4CCC(C)(c5nc(C)c(-c6cccc(OC(F)F)c6)[nH]5)CC4)ncnc3[nH]2)cn1 [P-3193, 4-[4-[5-[3-(difluoromethoxy)phenyl]-4-methyl-1H-imidazol-2-yl]-4-methyl-1-piperidyl]-6-(6-methoxy-3-pyridyl)-7H-pyrrolo[2,3-d]pyrimidine]	0.0001 to 1 µM	< 10000 nM
Cc1nc(C2(C)CCN(c3ncnc4[nH]c(-c5ccc(C#N)cc5)cc34)CC2)[nH]c1-c1cccc(OC(F)F)c1 [P-3194, 4-[4-[4-[5-[3-(difluoromethoxy)phenyl]-4-methyl-1H-imidazol-2-yl]-4-methyl-1-piperidyl]-7H-pyrrolo[2,3-d]pyrimidin-6-yl]benzonitrile]	0.0001 to 1 µM	< 10000 nM
Cc1nc(C2(C)CCN(c3ncnc4[nH]c(-c5ccc(C#N)cc5)cc34)CC2)[nH]c1-c1ccc(OC(F)F)cc1 [P-3195, 4-[4-[4-[5-[4-(difluoromethoxy)phenyl]-4-methyl-1H-imidazol-2-yl]-4-methyl-1-piperidyl]-7H-pyrrolo[2,3-d]pyrimidin-6-yl]benzonitrile]	0.0001 to 1 µM	< 10000 nM
Cc1cc2c(N3CCC(C)(c4nc(C)c(-c5ccc(OC(F)F)cc5)[nH]4)CC3)ncnc2[nH]1 [P-3196, 4-[4-[5-[4-(difluoromethoxy)phenyl]-4-methyl-1H-imidazol-2-yl]-4-methyl-1-piperidyl]-6-methyl-7H-pyrrolo[2,3-d]pyrimidine]	0.0001 to 1 µM	< 10000 nM
CCc1[nH]c(C2CCN(c3ncnc4[nH]c(-c5cnn(C(F)F)c5)cc34)CC2)nc1C [P-3197, 6-[1-(difluoromethyl)pyrazol-4-yl]-4-[4-(5-ethyl-4-methyl-1H-imidazol-2-yl)-1-piperidyl]-7H-pyrrolo[2,3-d]pyrimidine]	0.0001 to 1 µM	< 10000 nM
CCc1[nH]c(C2CCN(c3ncnc4[nH]c(-c5ccc(C#N)cc5)cc34)CC2)nc1C [P-3198, 4-[4-[4-(5-ethyl-4-methyl-1H-imidazol-2-yl)-1-piperidyl]-7H-pyrrolo[2,3-d]pyrimidin-6-yl]benzonitrile]	0.0001 to 1 µM	< 10000 nM
COc1ccc(-c2[nH]c(C3(C)CCN(c4ncnc5[nH]c(-c6ccc(C(=O)O)cc6)cc45)CC3)nc2C)cc1F [P-3199, 4-[4-[4-[5-(3-fluoro-4-methoxy-phenyl)-4-methyl-1H-imidazol-2-yl]-4-methyl-1-piperidyl]-7H-pyrrolo[2,3-d]pyrimidin-6-yl]benzoic acid]	0.0001 to 1 µM	< 10000 nM
Cc1nc(C2(C)CCN(c3ncnc4[nH]nc(C)c34)CC2)[nH]c1-c1ccc(Cl)cc1 [P-3200, 4-[4-[5-(4-chlorophenyl)-4-methyl-1H-imidazol-2-yl]-4-methyl-1-piperidyl]-3-methyl-1H-pyrazolo[3,4-d]pyrimidine]	0.0001 to 1 µM	< 10000 nM
Cc1nc(C2(C)CCN(c3ncnc4[nH]nc(C)c34)CC2)[nH]c1-c1cccc(OC(F)F)c1 [P-3201, 4-[4-[5-[3-(difluoromethoxy)phenyl]-4-methyl-1H-imidazol-2-yl]-4-methyl-1-piperidyl]-3-methyl-1H-pyrazolo[3,4-d]pyrimidine]	0.0001 to 1 µM	< 10000 nM
COc1ccc(-c2[nH]c(C3(C)CCN(c4ncnc5[nH]nc(C)c45)CC3)nc2C)cc1F [P-3202, 4-[4-[5-(3-fluoro-4-methoxy-phenyl)-4-methyl-1H-imidazol-2-yl]-4-methyl-1-piperidyl]-3-methyl-1H-pyrazolo[3,4-d]pyrimidine]	0.0001 to 1 µM	< 10000 nM
Cc1nc(C2(C)CCN(c3ncnc4[nH]nc(C)c34)CC2)[nH]c1-c1ccc2c(c1)OC(F)(F)O2 [P-3203, 4-[4-[5-(2,2-difluoro-1,3-benzodioxol-5-yl)-4-methyl-1H-imidazol-2-yl]-4-methyl-1-piperidyl]-3-methyl-1H-pyrazolo[3,4-d]pyrimidine]	0.0001 to 1 µM	< 10000 nM
Fc1ccc(-c2cc3c(N4CCC(c5nnc(-c6ccc(F)cc6)[nH]5)CC4)ncnc3[nH]2)cc1 [P-3206, 6-(4-fluorophenyl)-4-[4-[5-(4-fluorophenyl)-4H-1,2,4-triazol-3-yl]-1-piperidyl]-7H-pyrrolo[2,3-d]pyrimidine]	0.0001 to 1 µM	< 10000 nM
COc1cc(-c2cc3c(N4CCC(c5nnc(-c6cccc(OC(F)F)c6)[nH]5)CC4)ncnc3[nH]2)ccn1 [P-3207, 4-[4-[5-[3-(difluoromethoxy)phenyl]-4H-1,2,4-triazol-3-yl]-1-piperidyl]-6-(2-methoxy-4-pyridyl)-7H-pyrrolo[2,3-d]pyrimidine]	1 to 10 µM	< 10000 nM
CCOc1ccc(-c2[nH]c(C3(C)CCN(c4ncnc5[nH]c(-c6ccc(OC)nc6)cc45)CC3)nc2C)cc1F [P-3209, 4-[4-[5-(4-ethoxy-3-fluoro-phenyl)-4-methyl-1H-imidazol-2-yl]-4-methyl-1-piperidyl]-6-(6-methoxy-3-pyridyl)-7H-pyrrolo[2,3-d]pyrimidine]	0.0001 to 1 µM	< 10000 nM
CCOc1ccc(-c2[nH]c(C3(C)CCN(c4ncnc5[nH]c(-c6cnn(C(F)F)c6)cc45)CC3)nc2C)cc1F [P-3210, 6-[1-(difluoromethyl)pyrazol-4-yl]-4-[4-[5-(4-ethoxy-3-fluoro-phenyl)-4-methyl-1H-imidazol-2-yl]-4-methyl-1-piperidyl]-7H-pyrrolo[2,3-d]pyrimidine]	0.0001 to 1 µM	< 10000 nM
COc1ccc(-c2[nH]c(C3(C)CCN(c4ncnc5[nH]c(-c6ccc(C#N)nc6)cc45)CC3)nc2C)cc1F [P-3211, 5-[4-[4-[5-(3-fluoro-4-methoxy-phenyl)-4-methyl-1H-imidazol-2-yl]-4-methyl-1-piperidyl]-7H-pyrrolo[2,3-d]pyrimidin-6-yl]pyridine-2-carbonitrile]	0.0001 to 1 µM	< 10000 nM
COc1ccc(-c2[nH]c(C3(C)CCN(c4ncnc5[nH]c(-c6ccc(C(N)=O)cc6)cc45)CC3)nc2C)cc1F [P-3212, 4-[4-[4-[5-(3-fluoro-4-methoxy-phenyl)-4-methyl-1H-imidazol-2-yl]-4-methyl-1-piperidyl]-7H-pyrrolo[2,3-d]pyrimidin-6-yl]benzamide]	0.0001 to 1 µM	< 10000 nM
COc1ccc(-c2[nH]c(C3(C)CCN(c4ncnc5[nH]c(-c6ccc(NS(C)(=O)=O)cc6)cc45)CC3)nc2C)cc1F [P-3213, N-[4-[4-[4-[5-(3-fluoro-4-methoxy-phenyl)-4-methyl-1H-imidazol-2-yl]-4-methyl-1-piperidyl]-7H-pyrrolo[2,3-d]pyrimidin-6-yl]phenyl]methanesulfonamide]	0.0001 to 1 µM	< 10000 nM
COc1ccc(-c2[nH]c(C3(C)CCN(c4ncnc5[nH]c(-c6ccc(OCC(=O)O)cc6)cc45)CC3)nc2C)cc1F [P-3214, 2-[4-[4-[4-[5-(3-fluoro-4-methoxy-phenyl)-4-methyl-1H-imidazol-2-yl]-4-methyl-1-piperidyl]-7H-pyrrolo[2,3-d]pyrimidin-6-yl]phenoxy]acetic acid]	0.0001 to 1 µM	< 10000 nM
COc1ccc(-c2[nH]c(C3(C)CCN(c4ncnc5[nH]c(-c6ccc(N7CCOCC7)nc6)cc45)CC3)nc2C)cc1F [P-3215, 4-[5-[4-[4-[5-(3-fluoro-4-methoxy-phenyl)-4-methyl-1H-imidazol-2-yl]-4-methyl-1-piperidyl]-7H-pyrrolo[2,3-d]pyrimidin-6-yl]-2-pyridyl]morpholine]	0.0001 to 1 µM	< 10000 nM
COc1ccc(-c2[nH]c(C3(C)CCN(c4ncnc5[nH]c(-c6ccc(C(N)=O)cc6)cc45)CC3)nc2C)cc1C [P-3216, 4-[4-[4-[5-(4-methoxy-3-methyl-phenyl)-4-methyl-1H-imidazol-2-yl]-4-methyl-1-piperidyl]-7H-pyrrolo[2,3-d]pyrimidin-6-yl]benzamide]	0.0001 to 1 µM	< 10000 nM
COc1ccc(-c2[nH]c(C3(C)CCN(c4ncnc5[nH]c(-c6ccc(OCC(=O)O)cc6)cc45)CC3)nc2C)cc1C [P-3217, 2-[4-[4-[4-[5-(4-methoxy-3-methyl-phenyl)-4-methyl-1H-imidazol-2-yl]-4-methyl-1-piperidyl]-7H-pyrrolo[2,3-d]pyrimidin-6-yl]phenoxy]acetic acid]	0.0001 to 1 µM	< 10000 nM
CNC(=O)c1ccc(-c2cc3c(N4CCC(C)(c5nc(C)c(-c6ccc(OC)c(C)c6)[nH]5)CC4)ncnc3[nH]2)cn1 [P-3218, 5-[4-[4-[5-(4-methoxy-3-methyl-phenyl)-4-methyl-1H-imidazol-2-yl]-4-methyl-1-piperidyl]-7H-pyrrolo[2,3-d]pyrimidin-6-yl]-N-methyl-pyridine-2-carboxamide]	0.0001 to 1 µM	< 10000 nM
COc1ccc(-c2[nH]c(C3(C)CCN(c4ncnc5[nH]c(-c6ccc(N7CCOCC7)nc6)cc45)CC3)nc2C)cc1C [P-3219, 4-[5-[4-[4-[5-(4-methoxy-3-methyl-phenyl)-4-methyl-1H-imidazol-2-yl]-4-methyl-1-piperidyl]-7H-pyrrolo[2,3-d]pyrimidin-6-yl]-2-pyridyl]morpholine]	0.0001 to 1 µM	< 10000 nM
CNC(=O)c1ccc(-c2cc3c(N4CCC(C)(c5nc(C)c(-c6ccc(OC)c(F)c6)[nH]5)CC4)ncnc3[nH]2)cn1 [P-3220, 5-[4-[4-[5-(3-fluoro-4-methoxy-phenyl)-4-methyl-1H-imidazol-2-yl]-4-methyl-1-piperidyl]-7H-pyrrolo[2,3-d]pyrimidin-6-yl]-N-methyl-pyridine-2-carboxamide]	0.0001 to 1 µM	< 10000 nM
